Consider seven compounds from patent publication US20230024096A1, “BIFUNCTIONAL COMPOUNDS FOR THE TREATMENT OF CANCER” (Hoffmann-La Roche Inc., priority 2019, published 2023).

The target of the assay is T1, SMARCA2 (Homo sapiens, UniProt P51531).
T1 construct: endogenous in cells; host or cells: HT1080 (CRISPR HiBiT knock-in clone, generated in house)
The assay can be described thus: SMARCA2 HiBiT degradation assay (cellular). Type of assay: cell-based. As to conditions: table head names A549; for DC50: 6 h incubation, HiBiT-tagged SMARCA2, luminescence read-out, read-out: HiBit A549 SMARCA2 IP (nM) 6 h; for Emax: A549, 6 h incubation, Emax = amount of residual protein remaining in the cell following compound treatment.

T1 sequence (P51531 whole entry): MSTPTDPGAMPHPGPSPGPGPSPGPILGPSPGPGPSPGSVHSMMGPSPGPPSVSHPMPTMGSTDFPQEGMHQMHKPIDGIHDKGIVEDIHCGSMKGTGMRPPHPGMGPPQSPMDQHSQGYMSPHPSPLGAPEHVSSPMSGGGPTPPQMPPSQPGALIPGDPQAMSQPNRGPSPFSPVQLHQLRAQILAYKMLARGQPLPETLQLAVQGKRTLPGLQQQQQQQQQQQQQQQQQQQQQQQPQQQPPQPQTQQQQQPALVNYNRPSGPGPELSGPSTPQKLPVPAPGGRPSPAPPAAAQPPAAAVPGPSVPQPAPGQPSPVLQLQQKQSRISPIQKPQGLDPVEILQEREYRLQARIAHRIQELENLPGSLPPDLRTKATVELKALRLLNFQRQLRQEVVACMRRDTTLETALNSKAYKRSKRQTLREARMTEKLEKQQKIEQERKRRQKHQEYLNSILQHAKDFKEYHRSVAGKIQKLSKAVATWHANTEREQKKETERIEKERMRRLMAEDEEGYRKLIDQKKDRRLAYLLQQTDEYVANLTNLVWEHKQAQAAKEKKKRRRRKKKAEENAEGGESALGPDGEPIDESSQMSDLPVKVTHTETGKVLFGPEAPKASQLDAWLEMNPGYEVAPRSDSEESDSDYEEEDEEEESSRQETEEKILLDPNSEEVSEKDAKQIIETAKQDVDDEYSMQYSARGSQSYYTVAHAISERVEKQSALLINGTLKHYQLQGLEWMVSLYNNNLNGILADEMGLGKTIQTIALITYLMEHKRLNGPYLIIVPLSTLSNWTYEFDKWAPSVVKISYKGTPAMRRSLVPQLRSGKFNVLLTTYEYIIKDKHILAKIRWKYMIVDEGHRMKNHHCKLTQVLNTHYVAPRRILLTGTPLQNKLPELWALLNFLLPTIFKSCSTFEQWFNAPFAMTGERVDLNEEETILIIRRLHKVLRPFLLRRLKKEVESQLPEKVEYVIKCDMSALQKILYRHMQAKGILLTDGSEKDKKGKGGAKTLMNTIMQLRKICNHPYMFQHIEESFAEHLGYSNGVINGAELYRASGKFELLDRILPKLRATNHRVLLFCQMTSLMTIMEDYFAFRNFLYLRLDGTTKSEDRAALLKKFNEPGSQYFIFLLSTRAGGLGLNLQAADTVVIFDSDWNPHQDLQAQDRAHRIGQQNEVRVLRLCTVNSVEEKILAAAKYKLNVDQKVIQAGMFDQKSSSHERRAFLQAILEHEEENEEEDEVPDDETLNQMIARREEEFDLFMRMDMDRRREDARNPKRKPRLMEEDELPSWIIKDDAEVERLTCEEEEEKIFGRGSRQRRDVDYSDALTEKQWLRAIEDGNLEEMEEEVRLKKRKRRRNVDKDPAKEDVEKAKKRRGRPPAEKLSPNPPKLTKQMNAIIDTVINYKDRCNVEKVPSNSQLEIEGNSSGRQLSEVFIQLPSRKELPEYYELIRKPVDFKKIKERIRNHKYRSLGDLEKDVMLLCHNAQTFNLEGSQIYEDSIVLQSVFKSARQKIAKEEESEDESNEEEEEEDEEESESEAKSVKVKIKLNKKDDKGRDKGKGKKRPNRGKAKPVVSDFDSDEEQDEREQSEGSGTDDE

For `Nc1nnc(-c2ccccc2O)cc1N1CCN(c2ccccc2)C(C(=O)NC2CCN(C(=O)CC3CCN(c4ccc5c(c4)C(=O)N(C4CCC(=O)NC4=O)C5=O)CC3)CC2)C1` (centres unmarked) [Example 53, 4-[3-amino-6-(2-hydroxyphenyl)pyridazin-4-yl]-N-[1-[2-[1-[2-(2,6-dioxo-3-piperidyl)-1,3-dioxo-isoindolin-5-yl]-4-piperidyl]acetyl]-4-piperidyl]-1-phenyl-piperazine-2-carboxamide], the DC50 was determined as 122 nM and the Emax came to 46%.
Taken in the same sequence, the figures for `Cc1c(C(=O)N2CCN(C(=O)C3CCN(c4ccc5c(c4)C(=O)N(C4CCC(=O)NC4=O)C5=O)CC3)CC2)cccc1N1C2CCC1CN(c1cc(-c3ccccc3O)nnc1N)C2` (racemic) [Example 116, rac-5-[4-[4-[3-[3-[3-amino-6-(2-hydroxyphenyl)pyridazin-4-yl]-3,8-diazabicyclo[3.2.1]octan-8-yl]-2-methyl-benzoyl]piperazine-1-carbonyl]-1-piperidyl]-2-(2,6-dioxo-3-piperidyl)isoindoline-1,3-dione] were 58 nM and 32%.
Taken in the same sequence, the figures for `Nc1nnc(-c2ccccc2O)cc1N1CC2CCC(C1)N2c1cccc(OCCN2CCN(C(=O)CCCCCCCNc3cccc4c3C(=O)N(C3CCC(=O)NC3=O)C4=O)CC2)c1` (racemic) [Example 11, rac-4-[[8-[4-[2-[3-[3-[3-amino-6-(2-hydroxyphenyl)pyridazin-4-yl]-3,8-diazabicyclo[3.2.1]octan-8-yl]phenoxy]ethyl]piperazin-1-yl]-8-oxo-octyl]amino]-2-(2,6-dioxo-3-piperidyl)isoindoline-1,3-dione] were 146 nM and 64%.
Take `Nc1nnc(-c2ccccc2O)cc1N1CC2CCC(C1)N2c1cccc(OCCN2CCN(C(=O)N3CCC(Oc4cccc5c4C(=O)N(C4CCC(=O)NC4=O)C5=O)CC3)CC2)c1` (racemic) [Example 41, rac-4-[[1-[4-[2-[3-[3-[3-amino-6-(2-hydroxyphenyl)pyridazin-4-yl]-3,8-diazabicyclo[3.2.1]octan-8-yl]phenoxy]ethyl]piperazine-1-carbonyl]-4-piperidyl]oxy]-2-(2,6-dioxo-3-piperidyl)isoindoline-1,3-dione]: the DC50 is 46 nM and the Emax amounted to 48%.
With `Nc1nnc(-c2ccccc2O)cc1N1CC2CCC(C1)N2c1cccc(OCCN2CCN(CC3CCN(c4ccc5c(c4)C(=O)N(C4CCC(=O)NC4=O)C5=O)CC3)CC2)c1` (racemic) [Example 38, rac-5-[4-[[4-[2-[3-[3-[3-amino-6-(2-hydroxyphenyl)pyridazin-4-yl]-3,8-diazabicyclo[3.2.1]octan-8-yl]phenoxy]ethyl]piperazin-1-yl]methyl]-1-piperidyl]-2-(2,6-dioxo-3-piperidyl)isoindoline-1,3-dione], the DC50 is 20 nM and the Emax is 29%.
The matching figures for `Nc1nnc(-c2ccccc2O)cc1N1CCC(C(=O)N2CCN(C(=O)C3CCN(c4ccc5c(c4)C(=O)N(C4CCC(=O)NC4=O)C5=O)CC3)CC2)(c2ccccc2)CC1` (centres unmarked) [Example 120, 5-(4-(4-(1-(3-amino-6-(2-hydroxyphenyl)pyridazin-4-yl)-4-phenylpiperidine-4-carbonyl)piperazine-1-carbonyl)piperidin-1-yl)-2-(2,6-dioxopiperidin-3-yl)isoindoline-1,3-dione]: 31 nM and 28%.
With `Nc1nnc(-c2ccccc2O)cc1OC1CCCN(c2ccc(N3CCN(C(=O)CCCCCCCCn4cc(CNc5cccc6c5C(=O)N(C5CCC(=O)NC5=O)C6=O)nn4)CC3)cc2)C1` (centres unmarked) [Example 3, 4-[[1-[9-[4-[4-[3-[3-amino-6-(2-hydroxyphenyl)pyridazin-4-yl]oxy-1-piperidyl]phenyl]piperazin-1-yl]-9-oxo-nonyl]triazol-4-yl]methylamino]-2-(2,6-dioxo-3-piperidyl)isoindoline-1,3-dione], the DC50 stood at 65 nM and the Emax came out at 50%.
